The structures appear in SMILES notation. Where a name gives a salt, the structure may show the parent alone. Peptide text beside a SMILES is read from it. * marks the point of attachment. Decanoyl = CCCCCCCCCC(=O)*; CH2Cl = ClC*

The values below come from patent US20250123269A1 (priority 2023, published 2025).

The subject of data set [1] is WT SARS-COV-2 (USA-WA1/2020). The class given is cell-based.
A further data set concerns SARS-COV-2 omicron JN.1. Briefly: microbe, parasite or virus in culture. The class given is cell-based. The note with it: Severe acute respiratory syndrome coronavirus 2, 48 h; for inhibition at 36 µM: read-out: replication inhibition.
The next data set concerns SARS-COV-2. The note with it: cited from earlier work.
The subject of the next data set is SARS-COV-2 (WA1/2020). The class given is cell-based.
The test system of a further data set is 229E-CoV. Briefly: organism not typed. The data set is classed as cell-based. The note with it: for IC50: 48 h.
Data set [2] has as its target main protease of SARS-COV-2 (Severe acute respiratory syndrome coronavirus 2, UniProt P0DTD1). The note with it: cited from earlier work.
For the next data set, the system named is MERS-COV. The data set is classed as cell-based.

For the compound `O=c1nc(NO)ccn1[C@@H]1O[C@H](CO)[C@@H](O)[C@H]1O` [EIDD-1931], in data set [1], the “dose-dependent inhibition of infection” value was “dose-dependent inhibition of infection”, the “inhibition of SARS-COV-2 infection (dose-response curve)” value (“inhibition of SARS-COV-2 infection” for short) is reported as “strong inhibition efficacy”, the inhibition of infection entry is on record as “complete inhibition” and the reduction of infection result was “at least 50%”.
`CCN(CC)Cc1cc(Nc2ccnc3cc(Cl)ccc23)ccc1O` [amodiaquine]: in the data set with SARS-COV-2 omicron JN.1, the IC50 lay within 12 to 12.1 µM and the inhibition at 36 µM was 80 to 95%.
`CN(C)C(=O)COC(=O)Cc1ccc(OC(=O)c2ccc(NC(=N)N)cc2)cc1` [camostat mesylate]: in the data set on SARS-COV-2, the “SARS-COV-2-driven entry and infection” value is on record as “significantly reduces”. Besides, the “inhibition of SARS-COV-2 infection” value in data set [1] was “significantly inhibited”. The cell toxicity entry in the data set on ACE2plusC3 cells is reported as “without causing cell toxicity”.
Regarding `CCN(CC)CCCC(C)Nc1ccnc2cc(Cl)ccc12` (stereo not drawn) [chloroquine], in the data set with SARS-COV-2 omicron JN.1, the IC50 was in the range of 12 to 12.1 µM and the inhibition at 36 µM fell in the range of 80 to 95%.
On to `CCCCCCCCCC(=O)N[C@@H](CCCN=C(N)N)C(=O)N[C@H](C(=O)N[C@@H](CCCCN)C(=O)N[C@@H](CCCN=C(N)N)C(=O)CCl)C(C)C` [decanoyl-RVKR-CMK] (Decanoyl-RVKR-CH2Cl), for which the “inhibition of infection by plaque assay (viral titer)” value in the data set with SARS-COV-2 (WA1/2020) is reported as “moderate inhibition of infection”. The “inhibition of infection by immunofluorescence” value in data set [1] was “moderate inhibition of infection”.
Turning to `Cn1cnc(Cn2c(=O)[nH]/c(=N\c3cc4cn(C)nc4cc3Cl)n(Cc3cc(F)c(F)cc3F)c2=O)n1` [ensitrelvir], the “inhibitory effect on infected cells” value in the data set with 229E-CoV is on record as “no inhibitory effect”.
Take `CCCCN(CCCC)CCC(O)c1cc2c(Cl)cc(Cl)cc2c2cc(C(F)(F)F)ccc12` (stereo not drawn) [halofantrine]: the “binding to main protease” value in data set [2] is “effectively binds”. In the data set on SARS-COV-2 omicron JN.1, the midpoint of inhibition, the IC50, lay at 4 µM and the inhibition at 36 µM was 80 to 95%.
As to `Cc1c(O)cccc1C(=O)N[C@@H](CSc1ccccc1)[C@H](O)CN1C[C@H]2CCCC[C@H]2C[C@H]1C(=O)NC(C)(C)C` [nelfinavir], in data set [1], the “dose-dependent inhibition of infection” value is “dose-dependent inhibition of infection”; the “inhibition of SARS-COV-2 infection” value was “potent and dose-dependent inhibition of infection”; the inhibition of infection entry is given as “did not completely inhibit infection”. Further, the “concentration with increased toxicity” value in the data set on ACE2plusC3 cells (human) was at least 25 µM.
Compound `CC(C)(C)[C@H](NC(=O)C(F)(F)F)C(=O)N1C[C@H]2[C@@H]([C@H]1C(=O)N[C@H](C#N)C[C@@H]1CCNC1=O)C2(C)C` [nirmatrelvir, Nirmatrelvir] showed an IC50 in the data set on 229E-CoV of 0.818 to 1.03 µM. In data set [1], the “dose-dependent inhibition of infection” value is “dose-dependent inhibition of infection”, the “inhibition of SARS-COV-2 infection” value was “strong inhibition efficacy” and the inhibition of infection result is on record as “nearly completely inhibited”. Besides, the CPE inhibition result in the data set with MERS-COV is given as “approximately 90%”.
`N#C[C@H](C[C@@H]1CCCNC1=O)NC(=O)[C@H](CC1CC1)NC(=O)c1cc2cccc(Cl)c2[nH]1` [pomotrelvir] showed an IC50 with 229E-CoV of 0.818 to 1.03 µM.

Broadly, the IC50 is the midpoint of a concentration-inhibition curve. Read a low IC50 as inhibition by little substance. In general, inhibition refers to the percentage by which the read-out fell short of the control.
